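Each compound was tested at five concentrations against cells in 96-well plates for 48 hours. The concentration for full growth arrest is given as TGI.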
How the values were obtained:
Test in all cases: NCI anticancer screen, dose series, 48 h
SK-MEL-5 melanoma = system: SK-MEL-5 melanoma
SW-620 colon = system: SW-620 colon
SF-539 CNS = system: SF-539 CNS
SK-MEL-2 melanoma = system: SK-MEL-2 melanoma
OVCAR-8 ovarian = system: OVCAR-8 ovarian
TK-10 renal = system: TK-10 renal
HCT-15 colon = system: HCT-15 colon
KM12 colon = system: KM12 colon
EKVX NSCLC = system: EKVX NSCLC
NCI-H23 lung = system: NCI-H23 lung
UACC-257 melanoma = system: UACC-257 melanoma
OVCAR-4 ovarian = system: OVCAR-4 ovarian
SR leukemia = system: SR leukemia
MCF7 breast = system: MCF7 breast
LOX IMVI melanoma = system: LOX IMVI melanoma
DU-145 prostate = system: DU-145 prostate
HCC-2998 colon = system: HCC-2998 colon
HL-60(TB) leukemia = system: HL-60(TB) leukemia
OVCAR-5 ovarian = system: OVCAR-5 ovarian
NCI-H460 lung = system: NCI-H460 lung
A549 NSCLC = system: A549 NSCLC
SK-MEL-28 melanoma = system: SK-MEL-28 melanoma
ACHN renal = system: ACHN renal
IGROV1 ovarian = system: IGROV1 ovarian
HT29 colon = system: HT29 colon
HOP-62 NSCLC = system: HOP-62 NSCLC
MDA-N = system: MDA-N
HS 578T breast = system: HS 578T breast
UACC-62 melanoma = system: UACC-62 melanoma
PC-3 prostate = system: PC-3 prostate
SNB-75 CNS = system: SNB-75 CNS
OVCAR-3 ovarian = system: OVCAR-3 ovarian
K-562 leukemia = system: K-562 leukemia
CAKI-1 renal = system: CAKI-1 renal
MDA-MB-435 = system: MDA-MB-435
HOP-92 NSCLC = system: HOP-92 NSCLC
M14 melanoma = system: M14 melanoma
BT-549 breast = system: BT-549 breast
MOLT-4 leukemia = system: MOLT-4 leukemia
MDA-MB-231 breast = system: MDA-MB-231 breast
MALME-3M melanoma = system: MALME-3M melanoma
T-47D breast = system: T-47D breast
786-0 renal = system: 786-0 renal
SF-268 CNS = system: SF-268 CNS
SK-OV-3 ovarian = system: SK-OV-3 ovarian
UO-31 renal = system: UO-31 renal
SF-295 CNS = system: SF-295 CNS
COLO 205 colon = system: COLO 205 colon
SN12C renal = system: SN12C renal
SNB-19 CNS = system: SNB-19 CNS
NCI/ADR-RES ovarian = system: NCI/ADR-RES ovarian
A498 renal = system: A498 renal
U251 CNS = system: U251 CNS
HCT-116 colon = system: HCT-116 colon
NCI-H522 lung = system: NCI-H522 lung
RXF 393 renal = system: RXF 393 renal
NCI-H226 lung = system: NCI-H226 lung

For O=[N+]([O-])C(=C(Cl)Cl)C(Cl)=C(Cl)Cl, the TGI (SK-MEL-5 melanoma) was 1.83 µM, the TGI (SW-620 colon) was 0.157 µM and the TGI (SF-539 CNS) was 3.45 µM. The TGI (SK-MEL-2 melanoma) was 3.24 µM, the TGI (OVCAR-8 ovarian) was 5.14 µM and the TGI (TK-10 renal) was 1.35 µM. For the same compound, the TGI (HCT-15 colon) was 0.908 µM, the TGI (KM12 colon) was 5.51 µM and the TGI (EKVX NSCLC) was 11.2 µM. For the same compound, the TGI (NCI-H23 lung) was 1.96 µM, the TGI (UACC-257 melanoma) was 0.74 µM and the TGI (OVCAR-4 ovarian) was 0.482 µM. The TGI (SR leukemia) was > 100 µM, the TGI (MCF7 breast) was 0.992 µM and the TGI (LOX IMVI melanoma) was 0.0351 µM. The TGI (DU-145 prostate) was 24 µM, the TGI (HCC-2998 colon) was 5.43 µM and the TGI (HL-60(TB) leukemia) was 0.0573 µM. For the same compound, the TGI (OVCAR-5 ovarian) was 3.94 µM, the TGI (NCI-H460 lung) was 5.21 µM and the TGI (A549 NSCLC) was 19.6 µM. It also gave a TGI (SK-MEL-28 melanoma) of 0.912 µM, a TGI (ACHN renal) of 2.05 µM and a TGI (IGROV1 ovarian) of 1.15 µM. For the same compound, the TGI (HT29 colon) was 0.852 µM, the TGI (HOP-62 NSCLC) was 25.3 µM and the TGI (MDA-N) was 1.24 µM. For the same compound, the TGI (HS 578T breast) was 3.29 µM, the TGI (UACC-62 melanoma) was 1.75 µM and the TGI (PC-3 prostate) was 4.66 µM. It also gave a TGI (SNB-75 CNS) of 3.35 µM, a TGI (OVCAR-3 ovarian) of 2.24 µM and a TGI (K-562 leukemia) of 0.118 µM. It also gave a TGI (CAKI-1 renal) of 0.699 µM, a TGI (MDA-MB-435) of 1.07 µM and a TGI (HOP-92 NSCLC) of 1.03 µM. For the same compound, the TGI (M14 melanoma) was 0.0871 µM, the TGI (BT-549 breast) was 0.528 µM and the TGI (MOLT-4 leukemia) was 0.175 µM. The TGI (MDA-MB-231 breast) was 2.11 µM, the TGI (MALME-3M melanoma) was 0.126 µM and the TGI (T-47D breast) was 0.289 µM. The TGI (786-0 renal) was 0.648 µM, the TGI (SF-268 CNS) was 4.92 µM and the TGI (SK-OV-3 ovarian) was 9.51 µM. The TGI (UO-31 renal) was 2.94 µM, the TGI (SF-295 CNS) was 9.54 µM and the TGI (COLO 205 colon) was 0.254 µM. For the same compound, the TGI (SN12C renal) was 2.22 µM, the TGI (SNB-19 CNS) was 11.2 µM and the TGI (NCI/ADR-RES ovarian) was 5.45 µM. The TGI (A498 renal) was 14.9 µM, the TGI (U251 CNS) was 7.26 µM and the TGI (HCT-116 colon) was 0.849 µM. The TGI (NCI-H522 lung) was < 0.0106 µM, the TGI (RXF 393 renal) was 0.091 µM and the TGI (NCI-H226 lung) was 3.53 µM.

From PubChem BioAssay (NCI)
